Reference: PubChem BioAssay (NCI)
“And” between values parts separate entries of the source, which are not always exact repeats. Equal values may be shown once.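 How tested: cells in 96-well plates exposed to compound for 48 hours at five concentrations. Here, GI50 denotes the concentration required for 50% inhibition of growth. The concentration for full growth arrest is given as TGI.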 Where a SMILES comes first, the peptide text is derived from it. [ ]: non-standard residue; d: D form.

Experiments:
Experiment in all cases: NCI-60 cell line screen, 48 h
COLO 205 colon = test system: COLO 205 colon
MDA-MB-231 breast = test system: MDA-MB-231 breast
K-562 leukemia = test system: K-562 leukemia
SK-MEL-28 melanoma = test system: SK-MEL-28 melanoma
MDA-MB-435 = test system: MDA-MB-435
UACC-257 melanoma = test system: UACC-257 melanoma
HOP-92 NSCLC = test system: HOP-92 NSCLC
UACC-62 melanoma = test system: UACC-62 melanoma
EKVX NSCLC = test system: EKVX NSCLC
HOP-62 NSCLC = test system: HOP-62 NSCLC

Compound | GI50 (COLO 205 colon) | TGI (COLO 205 colon) | GI50 (MDA-MB-231 breast) | TGI (MDA-MB-231 breast) | GI50 (K-562 leukemia) | TGI (K-562 leukemia) | GI50 (SK-MEL-28 melanoma) | TGI (SK-MEL-28 melanoma) | GI50 (MDA-MB-435) | TGI (MDA-MB-435) | GI50 (UACC-257 melanoma) | TGI (UACC-257 melanoma) | GI50 (HOP-92 NSCLC) | TGI (HOP-92 NSCLC) | GI50 (UACC-62 melanoma) | TGI (UACC-62 melanoma) | GI50 (EKVX NSCLC) | TGI (EKVX NSCLC) | TGI (HOP-62 NSCLC) | GI50 (HOP-62 NSCLC)
Cc1ccc2sc3c(NCCCN)nc4ccccc4c3c(=O)c2c1 | 2.19 µM | 5.13 µM | 1.7 µM | 3.3 µM | 2 µM | 4.51 µM | 1.78 µM | 3.28 µM | 1.82 µM | 3.46 µM | 2.04 µM | 4.21 µM | 1.44 µM | 4.65 µM | 1.74 µM | 3.24 µM | 1.89 µM | 4.09 µM |  | 
CCCN=C1NC(C)=CSC(Nc2ccccc2)=C1C#N |  | > 100 µM |  | > 100 µM |  | > 100 µM |  | > 100 µM |  | > 100 µM |  |  |  |  |  | > 100 µM |  |  | > 100 µM | 
CC(=O)/C=C(/C)[O-].CC(=O)/C=C(/C)[O-].CC(=O)[CH-]C(C)=O.CC(=O)[CH-]C(C)=O.[Zr+4] |  |  |  |  | > 100 µM | > 100 µM | > 100 µM | > 100 µM |  |  | > 100 µM | > 100 µM |  |  | > 100 µM | > 100 µM | > 100 µM | > 100 µM | > 100 µM | > 100 µM
CC(C)OC1=C(CC2(C)OCCO2)C(=O)C12OCCO2 |  | > 100 µM |  | > 100 µM |  |  |  | > 100 µM |  | > 100 µM |  | > 100 µM |  | > 100 µM |  | > 100 µM |  | > 100 µM | > 100 µM | 
CC(C)C[C@H](NC(=O)[C@H](CC(C)C)NC(=O)[C@@H](Cc1c[nH]c2ccccc12)NC(=O)[C@H](Cc1ccccc1)NC(=O)[C@@H](Cc1c[nH]c2ccccc12)NC(=O)[C@H](CCC(N)=O)NC(=O)[C@@H](CCC(N)=O)NC(=O)[C@@H]1CCCN1C(=O)[C@@H](CCCCN)NC(=O)[C@H]1CCCN1C(=O)[C@H](N)CCCN=C(N)N)C(N)=O (H-[dR][dP][dK]P[dQ]Q[dW]F[dW]LL-NH2) |  | > 100 µM |  |  |  | > 100 µM |  | > 100 µM |  |  |  | > 100 µM |  | > 100 µM |  | > 100 µM |  | > 100 µM | > 100 µM | 
[N-]=[N+]=C(C(=O)CN1CCCC1=O)S(=O)(=O)c1ccccc1 |  | > 100 µM |  | > 100 µM |  | > 100 µM |  | > 100 µM |  | > 100 µM |  | > 100 µM |  |  |  | > 100 µM |  | > 100 µM | > 100 µM | 
O=C1C(Cl)N(c2ccc([N+](=O)[O-])cc2)C1c1c[nH]c2ccccc12 (stereo not given) |  | > 100 µM |  |  |  | > 100 µM |  | > 100 µM |  |  |  | > 100 µM |  | > 100 µM |  | > 100 µM |  | > 100 µM | > 100 µM | 
CCN(CC)/N=C\c1c2ccccc2cc2ccccc12 |  | 53.5 µM |  | > 100 µM |  | > 100 µM |  | > 100 µM |  | > 100 µM |  | 72.4 µM |  | 61.1 µM |  | > 100 µM |  | > 100 µM |  | 
COC(=O)/C1=C/C=C\C[C@@]2(C)CC(c3ccoc3)OC(=O)[C@@H]2CC[C@H]1C (stereo not given in full) |  | > 25 µM |  | > 25 µM |  | > 25 µM |  | > 25 µM |  |  |  | > 25 µM |  | > 25 µM |  | > 25 µM |  | > 25 µM | > 25 µM | 
Cc1nc(N)c(N2CCN(S(=O)(=O)N(Cc3ccccc3)Cc3ccccc3)CC2)c(=O)[nH]1 |  | 65.9 µM |  | > 100 µM |  | > 100 µM |  | 34.1 µM |  | 88.8 µM |  | 61.5 µM |  |  |  |  |  | > 100 µM | 83.5 µM | 
O=c1c(O)c(-c2ccccc2)oc2c(CP(=O)(O)O)cccc12 |  | > 100 µM |  | > 100 µM |  | > 100 µM |  |  |  | > 100 µM |  | > 100 µM |  |  |  | > 100 µM |  | > 100 µM | > 100 µM | 
O=S(=O)(O)c1cc(S(=O)(=O)O)c2cc(N=Nc3ccc(N=Nc4ccc(/C=C/c5ccc(N=[N+]([O-])c6ccc(/C=C/c7ccc(N=Nc8ccc(N=Nc9ccc%10cc(S(=O)(=O)O)cc(S(=O)(=O)O)c%10c9)cc8)cc7S(=O)(=O)O)c(S(=O)(=O)O)c6)cc5S(=O)(=O)O)c(S(=O)(=O)O)c4)cc3)ccc2c1 |  | > 100 µM |  |  |  | > 100 µM |  | > 100 µM |  |  |  | > 100 µM |  | 98.9 µM |  | 65.4 µM |  | > 100 µM | > 100 µM | 
Cc1ccc(/C=c2\c(=O)[nH]c3nc4ccccc4c(=O)n23)cc1 |  | 42.2 µM |  | > 100 µM |  |  |  | > 100 µM |  | 60.5 µM |  | > 100 µM |  | > 100 µM |  | > 100 µM |  |  | > 100 µM | 
COc1cc(C2c3cccc4cccc(c34)C3CCC(=O)N32)cc(OC)c1O (stereo not given) |  | > 50 µM |  |  |  | > 50 µM |  | > 50 µM |  | > 50 µM |  | > 50 µM |  | > 50 µM |  | > 50 µM |  | > 50 µM | > 50 µM | 
OCc1ccc2c(c1)CC1(Cc3ccccc3C1)C2 |  | 31.2 µM |  | 27.4 µM |  | 38.1 µM |  | 49.6 µM |  |  |  | 43 µM |  | 38 µM |  | 60.2 µM |  | 80.2 µM | > 100 µM | 
Cc1cc(C)[n+]2c(c1)C=CC2 |  | 68.2 µM |  |  |  |  |  | > 100 µM |  |  |  | > 100 µM |  | > 100 µM |  |  |  | > 100 µM | > 100 µM | 
O=C(Nc1ccc(Br)cc1)C(=O)C(C(=O)c1ccc(Cl)c(Cl)c1)C1OC(=O)c2ccccc21 (stereo not given) |  | 34.8 µM |  |  |  | > 100 µM |  | 29.2 µM |  |  |  | 38.9 µM |  | 58.4 µM |  | 26.4 µM |  | > 100 µM | 32.5 µM | 
O=c1oc2ccccc2c(O)c1C(c1ccc(OCc2ccccc2)cc1)c1c(O)c2ccccc2oc1=O |  | > 100 µM |  | 69.2 µM |  |  |  | > 100 µM |  | > 100 µM |  | > 100 µM |  | 91.6 µM |  | > 100 µM |  | > 100 µM | > 100 µM | 
COC(=O)C1=C(C)NC(C)=C(C(=O)OC)C1c1cccc(/[N+]([O-])=C/c2ccccc2)c1 |  | 30.5 µM |  | 32 µM |  |  |  | 31.6 µM |  | 35.7 µM |  | 40.5 µM |  | 38 µM |  | > 100 µM |  | > 100 µM | > 100 µM | 
N#Cc1ccc(-c2ccc(Cl)cc2)n(C2OC(CO)C(O)C(O)C2O)c1=S (stereo not given) |  |  |  | > 100 µM |  | > 100 µM |  | > 100 µM |  |  |  | > 100 µM | > 100 µM and 14.6 µM | > 100 µM and 51.5 µM |  | > 100 µM | > 100 µM and 33.7 µM | > 100 µM | > 100 µM and 36.3 µM | 
O=c1c2cccnc2oc2c(Cl)cc(-c3nn[nH]n3)cc12 |  | > 100 µM |  | > 100 µM |  | > 100 µM |  | > 100 µM |  | > 100 µM |  |  |  | > 100 µM |  | > 100 µM |  | > 100 µM | > 100 µM | 
